# Source: US20040209897A1 (Pharmacia Corporation, priority 2002, published 2004)
# Where a name gives a salt, the structure may show the parent alone.
# Molecular target: Recombinant MAPKAPK2 (MK-2) (Homo sapiens, UniProt P49137)
# Assay: Determination of MK-2 IC50 (HSP-peptide phosphorylation, anion exchange resin capture assay)
# Format: biochemical
# Details: not given
# Recombinant MAPKAPK2 (MK-2), sequence (P49137 whole entry, species assumed): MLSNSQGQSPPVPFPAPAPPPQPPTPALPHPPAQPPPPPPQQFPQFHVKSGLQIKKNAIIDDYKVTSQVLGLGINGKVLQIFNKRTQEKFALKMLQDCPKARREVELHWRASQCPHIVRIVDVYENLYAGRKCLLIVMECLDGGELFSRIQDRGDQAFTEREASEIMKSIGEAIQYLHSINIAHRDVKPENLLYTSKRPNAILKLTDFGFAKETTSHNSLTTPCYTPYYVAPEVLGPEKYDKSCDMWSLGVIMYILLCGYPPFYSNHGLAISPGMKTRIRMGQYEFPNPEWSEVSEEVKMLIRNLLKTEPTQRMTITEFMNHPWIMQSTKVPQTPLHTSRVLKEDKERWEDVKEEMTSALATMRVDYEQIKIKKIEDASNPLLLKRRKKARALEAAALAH
row,kind of MK-2 inhibition (irreversible),Compound
1,irreversible inhibitor,"C=CC(=O)Nc1cccc(-c2cc(-c3cc4c([nH]3)CCNC4=O)ccn2)c1 [N-[3-[4-(4-oxo-4,5,6,7-tetrahydro-1H-pyrrolo[3,2-c]pyridin-2-yl)pyridin-2-yl]phenyl}acrylamide]"

# Same assay, conditions: MAPKAP2 Avg. IC50
row,Compound,IC50 [nM]
1,"CC(=O)c1cccc(-c2cc(-c3cc4c([nH]3)CCNC4=O)c(F)cn2)c1 [Example 159, trifluoroacetate]",28.3
2,"CN(N)c1cc(-c2cc3c([nH]2)CCNC3=O)ccn1 [Example 756, 2-[2-(1-methylhydrazino)pyridin-4-yl]-1,5,6,7-tetrahydro-4H-pyrrolo[3,2-c]pyridin-4-one]",4910
3,O=C1NCCc2[nH]c(-c3ccnc(-c4ccc([N+](=O)[O-])cc4)c3)cc21 [Example 587],316
4,"O=C(CCl)Nc1cccc(-c2cc(-c3cc4c([nH]3)CCNC4=O)ccn2)c1 [Example 401, trifluoroacetate]",87.5
5,CN(C)S(=O)(=O)c1ccc(-c2cc(-c3cc4c([nH]3)CCNC4=O)ccn2)cc1 [Example 470],120
6,CC(C)=NNc1cc(-c2cc3c([nH]2)CCNC3=O)ccn1 [Example 491],133
7,"Cn1c(-c2ccnc(-c3cnc4ccccc4c3)c2)cc2c1CCNC2=O [Example 750, 1-methyl-2-(2-quinolin-3-ylpyridin-4-yl)-1,5,6,7-tetrahydro-4H-pyrrolo[3,2-c]pyridin-4-one]",4130
8,"CC(=NO)c1cccc(-c2cc(-c3cc4c([nH]3)CCNC4=O)ccn2)c1 [Example 134, bis(trifluoroacetate)]",25.7
9,O=C1NCCc2[nH]c(-c3ccnc(-c4ccc5cc(O)ccc5c4)c3)cc21 [Example 17],9.2
10,"O=C1NC(C2CC2)Cc2[nH]c(-c3ccnc(-c4cccc(NC(=O)C5CCCC5)c4)c3)cc21 (stereo not shown) [Example 634, trifluoroacetate]",509
11,"CC(C)Cc1cncc(-c2cc(-c3cc4c([nH]3)CCNC4=O)ccn2)c1 [Example 243, trifluoroacetate]",41.8
12,"CC(C)CCN(CCCc1ccc(-c2cc(-c3cc4c([nH]3)CCNC4=O)ccn2)cn1)CCC(C)C [Example 511, 2-(6′-{3-(bis(3-methylbutyl)amino]propyl}-2,3′-bipyridin-4-yl)-1,5,6,7-tetrahydro-4H-pyrrolo[3,2-c]pyridin-4-one trifluoroacetate]",151
13,"O=C1NCCc2cc(-c3cc(-c4cc5c([nH]4)CCNC5=O)ccn3)ccc21 [Example 161, trifluoroacetate]",28.6
14,"COC(=O)c1ccc(-c2cc(-c3cc4c([nH]3)CCNC4=O)ccn2)cc1 [Example 105, trifluoroacetate]",22
15,"CN(C)C/C=C/C(=O)Nc1cccc(-c2cc(-c3cc4c([nH]3)CCNC4=O)ccn2)c1 [Example 338, trifluoroacetate]",64.8
16,"CCCCc1cccc(-c2cc(-c3cc4c([nH]3)CCNC4=O)ccn2)c1 [Example 659, trifluoroacetate]",721
17,O=C1NCCc2[nH]c(-c3ccc(O)c(-c4cnc5ccccc5c4)c3)cc21 [Example 676],937
18,"O=C(O)c1cccc(-c2cccc(-c3cc(-c4cc5c([nH]4)CCNC5=O)ccn3)c2)c1 [Example 333, trifluoroacetate]",64.2
19,"O=C1NCCc2[nH]c(-c3cc(-c4ccc(Oc5ccccc5)cc4)ncc3F)cc21 [Example 509, 2-[5-fluoro-2-(4-phenoxyphenyl)pyridin-4-yl]-1,5,6,7-tetrahydro-4H-pyrrolo[3,2-c]pyridin-4-one trifluoroacetate]",149
20,"CN(C)C(=O)CCCOc1ccc(-c2cc(-c3cc4c([nH]3)CCNC4=O)ccn2)cc1 [Example 326, trifluoroacetate]",62.2
21,O=C(O)c1ccc(-c2cc(-c3cc4c([nH]3)CCNC4=O)c(F)cn2)cc1 [Example 28],10.1
22,"CC(=NO)c1ccc(-c2cc(-c3cc4c([nH]3)CCNC4=O)ccn2)cc1 [Example 349, trifluoroacetate]",66.7
23,"O=C1NCCc2[nH]c(-c3ccnc(-c4ccc(OCC(O)CN5CCC[C@@H]5CN5CCCC5)cc4)c3)cc21 (stereo partly drawn) [Example 508, 2-[2-(4-{2-hydroxy-3-[(2R)-2-(pyrrolidin-1-ylmethyl)pyrrolidin-1-yl]propoxy}phenyl)pyridin-4-yl]-1,5,6,7-tetrahydro-4H-pyrrolo[3,2-c]pyridin-4-one trifluoroacetate]",149
24,"O=C(NCC(F)(F)F)c1ccc(-c2cc(-c3cc4c([nH]3)CCNC4=O)ccn2)cc1 [Example 121, trifluoroacetate]",23.9
25,CON=C(C)c1ccc(-c2cc(-c3cc4c([nH]3)CCNC4=O)ccn2)cc1 [Example 415],92.3
26,"Cc1ccc(-c2cc(-c3cc4c([nH]3)CCNC4=O)ccn2)cc1F [Example 150, trifluoroacetate]",27.6
27,"O=C1NCCc2[nH]c(-c3ccnc(-c4cccc(CNCc5cccc(Cl)c5)c4)c3)cc21 [Example 408, bis(trifluoroacetate)]",89.9

# More lines, now with the values ahead:
row,IC50 [nM],Compound
1,16.4,"O=C1NCCc2[nH]c(-c3ccnc(-c4ccc5c(c4)OC=CO5)c3)cc21 [Example 62, trifluoroacetate]"
2,134,O=C1NCCc2[nH]c(-c3ccnc(/C=C/c4cc5ccccc5o4)c3)cc21 [Example 494]
3,29.6,"COc1ccc(/C=C/c2cc(-c3cc4c([nH]3)CCNC4=O)ccn2)cc1 [Example 170, trifluoroacetate]"
4,18.3,"O=C1NCCc2[nH]c(-c3ccnc(/C=C/c4cccnc4)c3)cc21 [Example 78, trifluoroacetate]"
5,342,"CC(C)c1ccccc1/C=C/c1cc(-c2cc3c([nH]2)CCNC3=O)ccn1 [Example 599, trifluoroacetate]"
6,29.6,"COc1cc(/C=C/c2cc(-c3cc4c([nH]3)CCNC4=O)ccn2)cc(OC)c1 [Example 171, trifluoroacetate]"
7,365,O=C1NCCc2[nH]c(-c3ccnc(/C=C\C=C\c4ccccc4)c3)cc21 [Example 610]
8,1760,"O=C1NCCc2[nH]c(-c3ccnc(/C=C/Cc4ccccc4)c3)cc21 [Example 713, trifluoroacetate]"
9,136,"O=C1NCCc2[nH]c(-c3ccnc(/C=C(/F)c4ccccc4)c3)cc21 [Example 497, trifluoroacetate]"
10,816,"O=C1NCCc2[nH]c(-c3ccnc(/C=C/c4ccccc4-c4ccccc4)c3)cc21 [Example 670, trifluoroacetate]"
11,1020,"O=C1NCCc2[nH]c(-c3ccnc(/C=C/c4ccc(-c5ccccc5)s4)c3)cc21 [Example 683, trifluoroacetate]"
12,101,"CCc1ccc(-c2cc(-c3cc4c([nH]3)CCNC4=O)ccn2)cc1 [Example 434, trifluoroacetate]"
13,23.7,"CC(C)c1cccc(-c2cc(-c3cc4c([nH]3)CCNC4=O)ccn2)c1 [Example 119, trifluoroacetate]"
14,16.4,"O=C1NCCc2[nH]c(-c3ccnc(-c4ccc(N5CCOCC5)nc4)c3)cc21 [Example 63, trifluoroacetate]"
15,150,"O=C1NCCc2[nH]c(-c3ccnc(/C=C/c4ccc(C(F)(F)F)cc4F)c3)cc21 [Example 510, 2-(2-{(E)-2-[2-fluoro-4-(trifluoromethyl)phenyl]vinyl}pyridin-4-yl)-1,5,6,7-tetrahydro-4H-pyrrolo[3,2-c]pyridin-4-one trifluoroacetate]"
16,99.3,"C/C=C/C(=O)Nc1cccc(-c2cc(-c3cc4c([nH]3)CCNC4=O)ccn2)c1 [Example 430, trifluoroacetate]"
17,16,"O=C1NCCc2[nH]c(-c3ccnc(/C=C/c4c(F)cccc4F)c3)cc21 [Example 59, trifluoroacetate]"
18,28.5,"N#Cc1cccc(-c2cc(-c3cc4c([nH]3)CCNC4=O)ccn2)c1 [Example 160, trifluoroacetate]"
19,3330,"O=C1NCCc2[nH]c(-c3ccnc(/C=C\c4cccnc4)c3)cc21 [Example 747, trifluoroacetate]"
20,28.1,"O=C1NCCc2[nH]c(-c3ccnc(/C=C/c4ccc(N5CCOCC5)c(F)c4)c3)cc21 [Example 156, trifluoroacetate]"
21,14300,"N/N=C(\c1ccccc1)c1cc(-c2cc3c([nH]2)CCNC3=O)ccn1 [Example 786, 2-{2-[(E)-hydrazono(phenyl)methyl]pyridin-4-yl}-1,5,6,7-tetrahydro-4H-pyrrolo[3,2-c]pyridin-4-one trifluoroacetate]"
22,354,"Cc1cc(C)c(/C=C\c2cc(-c3cc4c([nH]3)CCNC4=O)ccn2)cc1C [Example 604, trifluoroacetate]"
23,442,"O=C1NCCc2[nH]c(-c3ccnc(/C=C\c4cc5ccccc5s4)c3)cc21 [Example 623, trifluoroacetate]"
24,820,"O=C1NCCc2[nH]c(-c3ccnc(/C=C/c4ccccc4N4CCCCC4)c3)cc21 [Example 671, trifluoroacetate]"
25,7540,"C[C@@H]1CN(c2ccccc2/C=C/c2cc(-c3cc4c([nH]3)CCNC4=O)ccn2)C[C@H](C)O1 [Example 766, 2-[2-((E)-2-{2-[(2R,6S)-2,6-dimethylmorpholin-4-yl]phenyl}vinyl)pyridin-4-yl]-1,5,6,7-tetrahydro-4H-pyrrolo[3,2-c]pyridin-4-one trifluoroacetate]"
26,29.5,"O=C1NCCc2[nH]c(-c3ccnc(-c4ccc(C(=O)C5CC5)cc4)c3)cc21 [Example 167, trifluoroacetate]"
27,1800,"O=C1NCCc2[nH]c(-c3ccnc(/C=C/c4c(Cl)cccc4N4CCOCC4)c3)cc21 [Example 715, trifluoroacetate]"
28,171,"O=C1NCCc2[nH]c(-c3ccnc(/C=C/c4ccccc4N4CCOCC4)c3)cc21 [Example 529, 2-{2-[(E)-2-(2-morpholin-4-ylphenyl)vinyl]pyridin-4-yl}-1,5,6,7-tetrahydro-4H-pyrrolo[3,2-c]pyridin-4-one trifluoroacetate]"
29,38.9,"N#Cc1ccccc1/C=C/c1cc(-c2cc3c([nH]2)CCNC3=O)ccn1 [Example 225, trifluoroacetate]"

# Same assay, conditions: MAPKAP2 Avg. IC50, MK-2 inhibiting activity, Table I
row,IC50 [nM],Compound
1,20000,"O=C1NCCc2[nH]c(-c3cc(F)nc(-c4ccccc4F)c3)cc21 [Example 802, 2-[2-fluoro-6-(2-fluorophenyl)pyridin-4-yl]-1,5,6,7-tetrahydro-4H-pyrrolo[3,2-c]pyridin-4-one trifluoroacetate]"
